Experiments:
Format in all cases: in vivo
Alopecurus myosuroides [1] = assay: greenhouse pre-emergence trial, percent damage vs untreated control 21 days after treatment; settings: ALOMY
Lamium purpureum [2] = assay: as above; settings: 3.75 g/ha, LAMPU, Example 1A
Lolium perenne [3] = assay: as above; settings: 3.75 g/ha, LOLPE
Papaver rhoeas [4] = assay: as above; settings: PAPRH
Setaria viridis [5] = assay: as above; settings: SETVI, Example 1A
Stellaria media = assay: as above; settings: STEME
Veronica persica [6] = assay: as above; settings: VERPE
Galium aparine [7] = assay: as above; settings: GALAP
Alopecurus myosuroides [8] = assay: greenhouse post-emergence trial, percent damage vs untreated control 21 days after treatment; settings: ALOMY
Description: (§1) The trials are carried out under greenhouse conditions in pre- and post-emergence applications. The plant seeds are sown in pots containing a loamy sand soil (0.5 l). The herbicides are applied as single treatments, or in a combination comprising a compound of formula I and compound selected from group (2) as defined above, before or after emergence of weeds and crop. The herbicidal performance is assessed as percent damage in comparison to the untreated control plants. The assessment is done 21 days after the treatment. Wheat and barley are treated at the 3-4 leaf stage, the broad-leaf weeds at the 2-4 leaf stage and annual grasses at the 2-3 leaf stage.

Apera spica-venti = assay: as above; settings: APESV
Description: as §1

Galium aparine [9] = assay: as above; settings: GALAP
Description: as §1

Lamium purpureum [10] = assay: as above; settings: LAMPU
Description: as §1

Lolium perenne [11] = assay: as above; settings: LOLPE
Description: as §1

Matricaria inodora = assay: as above; settings: MATIN
Description: as §1

Papaver rhoeas [12] = assay: as above; settings: PAPRH, Example 1B
Description: as §1

Setaria viridis [13] = assay: as above; settings: SETVI
Description: as §1

Veronica persica [14] = assay: as above; settings: 3.75 g/ha, VERPE, Example 1B
Description: as §1

Structure (SMILES): FC(F)(F)c1ccc(-c2nccc(Oc3cccc(C(F)(F)F)c3)n2)cc1 [Compound A, 4-(3-trifluoromethylphenoxy)-2-(4-trifluoromethylphenyl)-pyrimidine]
- Compound A alone (% control) (Alopecurus myosuroides [1]; 3.75 g/ha, Example 1A): 0%
- Compound A alone (% control) (Alopecurus myosuroides [1]; 3.75 g/ha, Example 3): 0%
- Compound A alone (% control) (Alopecurus myosuroides [1]; 7.5 g/ha, Example 1A): 5%
- Compound A alone (% control) (Alopecurus myosuroides [1]; 7.5 g/ha, Example 3): 0%
- Compound A alone (% control) (Lamium purpureum [2]): 10%
- Compound A alone (% control) (Lolium perenne [3]; Example 1A): 5%
- Compound A alone (% control) (Lolium perenne [3]; Example 2): 15%
- Compound A alone (% control) (Papaver rhoeas [4]; 3.75 g/ha, Example 1A): 63%
- Compound A alone (% control) (Papaver rhoeas [4]; 3.75 g/ha, Example 2): 0%
- Compound A alone (% control) (Papaver rhoeas [4]; 7.5 g/ha, Example 2): 15%
- Compound A alone (% control) (Setaria viridis [5]; 3.75 g/ha): 0%
- Compound A alone (% control) (Setaria viridis [5]; 7.5 g/ha): 35%
- Compound A alone (% control) (Stellaria media; 3.75 g/ha, Example 1A): 0%
- Compound A alone (% control) (Stellaria media; 7.5 g/ha, Example 1A): 10%
- Compound A alone (% control) (Stellaria media; 7.5 g/ha, Example 2): 5%
- Compound A alone (% control) (Stellaria media; 15 g/ha, Example 1A): 60%
- Compound A alone (% control) (Veronica persica [6]; 3.75 g/ha, Example 1A): 13%
- Compound A alone (% control) (Veronica persica [6]; 3.75 g/ha, Example 2): 0%
- Compound A alone (% control) (Veronica persica [6]; 7.5 g/ha, Example 1A): 33%
- Compound A alone (% control) (Veronica persica [6]; 7.5 g/ha, Example 2): 23%
- Compound A alone (% control) (Veronica persica [6]; 15 g/ha, Example 2): 60%
- Compound A alone (% control) (Galium aparine [7]; 3.75 g/ha, Example 1A): 0%
- Compound A alone (% control) (Galium aparine [7]; 3.75 g/ha, Example 2): 0%
- Compound A alone (% control) (Galium aparine [7]; 7.5 g/ha, Example 2): 0%
- Compound A alone (% control) (Galium aparine [7]; 15 g/ha, Example 2): 10%
- Compound A alone (% control) (Galium aparine [7]; 15 g/ha, Example 3): 0%
- Compound A alone (% control) (Galium aparine [7]; 30 g/ha, Example 3): 0%
- Compound A alone (% control) (Galium aparine [7]; 60 g/ha, Example 3): 10%
- Compound A alone (% control) (Alopecurus myosuroides [8]; 3.75 g/ha, Example 1B): 10%
- Compound A alone (% control) (Alopecurus myosuroides [8]; 3.75 g/ha, Example 12): 0%
- Compound A alone (% control) (Alopecurus myosuroides [8]; 3.75 g/ha, Example 13): 3%
- Compound A alone (% control) (Alopecurus myosuroides [8]; 7.5 g/ha, Example 1B): 28%
- Compound A alone (% control) (Alopecurus myosuroides [8]; 7.5 g/ha, Example 4): 23%
- Compound A alone (% control) (Alopecurus myosuroides [8]; 7.5 g/ha, Example 5): 3%
- Compound A alone (% control) (Alopecurus myosuroides [8]; 7.5 g/ha, Example 13): 5%
- Compound A alone (% control) (Alopecurus myosuroides [8]; 15 g/ha, Example 1B): 45%
- Compound A alone (% control) (Alopecurus myosuroides [8]; 15 g/ha, Example 4): 28%
- Compound A alone (% control) (Alopecurus myosuroides [8]; 15 g/ha, Example 5): 8%
- Compound A alone (% control) (Alopecurus myosuroides [8]; 15 g/ha, Example 12): 0%
- Compound A alone (% control) (Alopecurus myosuroides [8]; 15 g/ha, Example 13): 8%
- Compound A alone (% control) (Alopecurus myosuroides [8]; 30 g/ha, Example 4): 50%
- Compound A alone (% control) (Alopecurus myosuroides [8]; 30 g/ha, Example 5): 23%
- Compound A alone (% control) (Alopecurus myosuroides [8]; 30 g/ha, Example 12): 10%
- Compound A alone (% control) (Alopecurus myosuroides [8]; 30 g/ha, Example 13): 15%
- Compound A alone (% control) (Alopecurus myosuroides [8]; 30 g/ha, Example 14): 15%
- Compound A alone (% control) (Alopecurus myosuroides [8]; 60 g/ha, Example 5): 28%
- Compound A alone (% control) (Alopecurus myosuroides [8]; 60 g/ha, Example 13): 43%
- Compound A alone (% control) (Alopecurus myosuroides [8]; 60 g/ha, Example 14): 33%
- Compound A alone (% control) (Apera spica-venti; 3.75 g/ha, Example 1B): 25%
- Compound A alone (% control) (Apera spica-venti; 3.75 g/ha, Example 7): 10%
- Compound A alone (% control) (Apera spica-venti; 3.75 g/ha, Example 8): 10%
- Compound A alone (% control) (Apera spica-venti; 3.75 g/ha, Example 12): 0%
- Compound A alone (% control) (Apera spica-venti; 7.5 g/ha, Example 1B): 35%
- Compound A alone (% control) (Apera spica-venti; 7.5 g/ha, Example 4): 50%
- Compound A alone (% control) (Apera spica-venti; 7.5 g/ha, Example 10): 20%
- Compound A alone (% control) (Apera spica-venti; 7.5 g/ha, Example 13): 10%
- Compound A alone (% control) (Apera spica-venti; 7.5 g/ha, Example 14): 5%
- Compound A alone (% control) (Apera spica-venti; 15 g/ha, Example 1B): 40%
- Compound A alone (% control) (Apera spica-venti; 15 g/ha, Example 10): 50%
- Compound A alone (% control) (Apera spica-venti; 15 g/ha, Example 14): 10%
- Compound A alone (% control) (Apera spica-venti; 30 g/ha, Example 5): 68%
- Compound A alone (% control) (Apera spica-venti; 30 g/ha, Example 12): 53%
- Compound A alone (% control) (Galium aparine [9]; 3.75 g/ha, Example 5): 10%
- Compound A alone (% control) (Galium aparine [9]; 3.75 g/ha, Example 10): 13%
- Compound A alone (% control) (Galium aparine [9]; 3.75 g/ha, Example 14): 40%
- Compound A alone (% control) (Galium aparine [9]; 7.5 g/ha, Example 5): 23%
- Compound A alone (% control) (Galium aparine [9]; 15 g/ha, Example 10): 20%
- Compound A alone (% control) (Galium aparine [9]; 15 g/ha, Example 12): 0%
- Compound A alone (% control) (Galium aparine [9]; 30 g/ha, Example 12): 20%
- Compound A alone (% control) (Galium aparine [9]; 60 g/ha, Example 10): 55%
- Compound A alone (% control) (Lamium purpureum [10]; 3.75 g/ha, Example 4): 20%
- Compound A alone (% control) (Lamium purpureum [10]; 3.75 g/ha, Example 7): 20%
- Compound A alone (% control) (Lamium purpureum [10]; 3.75 g/ha, Example 8): 20%
- Compound A alone (% control) (Lamium purpureum [10]; 3.75 g/ha, Example 12): 35%
- Compound A alone (% control) (Lamium purpureum [10]; 7.5 g/ha, Example 7): 35%
- Compound A alone (% control) (Lamium purpureum [10]; 7.5 g/ha, Example 8): 35%
- Compound A alone (% control) (Lamium purpureum [10]; 7.5 g/ha, Example 12): 55%
- Compound A alone (% control) (Lamium purpureum [10]; 15 g/ha, Example 1B): 83%
- Compound A alone (% control) (Lamium purpureum [10]; 15 g/ha, Example 7): 50%
- Compound A alone (% control) (Lamium purpureum [10]; 15 g/ha, Example 8): 50%
- Compound A alone (% control) (Lolium perenne [11]; 3.75 g/ha, Example 1B): 10%
- Compound A alone (% control) (Lolium perenne [11]; 3.75 g/ha, Example 12): 0%
- Compound A alone (% control) (Lolium perenne [11]; 7.5 g/ha, Example 1B): 28%
- Compound A alone (% control) (Lolium perenne [11]; 7.5 g/ha, Example 4): 23%
- Compound A alone (% control) (Lolium perenne [11]; 15 g/ha, Example 1B): 50%
- Compound A alone (% control) (Lolium perenne [11]; 15 g/ha, Example 5): 23%
- Compound A alone (% control) (Lolium perenne [11]; 30 g/ha, Example 6): 60%
- Compound A alone (% control) (Lolium perenne [11]; 30 g/ha, Example 7): 65%
- Compound A alone (% control) (Lolium perenne [11]; 30 g/ha, Example 13): 28%
- Compound A alone (% control) (Lolium perenne [11]; 60 g/ha, Example 7): 75%
- Compound A alone (% control) (Lolium perenne [11]; 60 g/ha, Example 8): 75%
- Compound A alone (% control) (Lolium perenne [11]; 60 g/ha, Example 11): 40%
- Compound A alone (% control) (Lolium perenne [11]; 60 g/ha, Example 13): 63%
- Compound A alone (% control) (Matricaria inodora; 3.75 g/ha, Example 10): 5%
- Compound A alone (% control) (Matricaria inodora; 7.5 g/ha, Example 10): 13%
- Compound A alone (% control) (Matricaria inodora; 7.5 g/ha, Example 13): 15%
- Compound A alone (% control) (Matricaria inodora; 15 g/ha, Example 9): 48%
- Compound A alone (% control) (Matricaria inodora; 15 g/ha, Example 10): 30%
- Compound A alone (% control) (Papaver rhoeas [12]; 3.75 g/ha): 30%
- Compound A alone (% control) (Papaver rhoeas [12]; 7.5 g/ha): 65%
- Compound A alone (% control) (Setaria viridis [13]; 3.75 g/ha, Example 1B): 0%
- Compound A alone (% control) (Setaria viridis [13]; 3.75 g/ha, Example 4): 15%
- Compound A alone (% control) (Setaria viridis [13]; 3.75 g/ha, Example 5): 0%
- Compound A alone (% control) (Setaria viridis [13]; 3.75 g/ha, Example 9): 0%
- Compound A alone (% control) (Setaria viridis [13]; 3.75 g/ha, Example 10): 4%
- Compound A alone (% control) (Setaria viridis [13]; 3.75 g/ha, Example 14): 0%
- Compound A alone (% control) (Setaria viridis [13]; 7.5 g/ha, Example 1B): 23%
- Compound A alone (% control) (Setaria viridis [13]; 7.5 g/ha, Example 5): 8%
- Compound A alone (% control) (Setaria viridis [13]; 7.5 g/ha, Example 9): 5%
- Compound A alone (% control) (Setaria viridis [13]; 7.5 g/ha, Example 10): 15%
- Compound A alone (% control) (Setaria viridis [13]; 15 g/ha, Example 1B): 55%
- Compound A alone (% control) (Setaria viridis [13]; 15 g/ha, Example 5): 58%
- Compound A alone (% control) (Veronica persica [14]): 80%

From patent US6683027B2, “Herbicidal mixtures” (BASF Aktienegesellschaft, priority 2000, dated 2004)
